This passage reports water solubility results from patent US20250320274A1, “RECOMBINANT HUMAN COLLAGEN AND METHOD FOR BUILDING SAME” (NANTONG UNIVERSITY, priority 2020, published 2025).

No end group written: not given here.

This data set can be described thus: water solubility test. The class given is physicochemical. To be noted: 32 mg in 8 ml of water, directly without stirring.

Regarding GPAGARGNDGATGAAGPPGPTGPAGPPGFP, the water solubility entry is “clear solution with no color, no precipitation, and no floating matter”.
